# Measurements reported in BindingDB's records for doi:10.1021/jm9608523 (Merck Sharp & Dohme Research Laboratories, 1997).
# pIC50: −log10 of the molar value.
# Biological target: Gastrin/cholecystokinin type B receptor (Cavia porcellus)
# Assay: Inhibition of ligand binding to Cholecystokinin type B receptor from guinea pig cortical membrane.
row,SMILES,pIC50
1,"CCCN1C(=O)[C@H](NC(=O)Nc2cccc(C)c2)N=C([C@H]2CCCCN2C)c2ccccc21 [1-[(R)-5-((R)-1-Methyl-piperidin-2-yl)-2-oxo-1-propyl-2,3-dihydro-1H-benzo[e][1,4]diazepin-3-yl]-3-m-tolyl-urea]",7.27
2,"CCCN1C(=O)[C@H](NC(=O)Nc2cccc(C)c2)N=C([C@H]2CCC(C)(C)CCN2C)c2ccccc21 [1-[(R)-2-Oxo-1-propyl-5-((R)-1,5,5-trimethyl-azepan-2-yl)-2,3-dihydro-1H-benzo[e][1,4]diazepin-3-yl]-3-m-tolyl-urea]",7.59
3,"Cc1cccc(NC(=O)N[C@@H]2N=C([C@H]3CCC(C)(C)CCN3)c3ccccc3N(C)C2=O)c1 [1-[(R)-5-((R)-5,5-Dimethyl-azepan-2-yl)-1-methyl-2-oxo-2,3-dihydro-1H-benzo[e][1,4]diazepin-3-yl]-3-m-tolyl-urea]",7.92
4,"CCN(CC)C(=O)CN1C(=O)[C@H](NC(=O)Nc2cccc(C)c2)N=C(c2cccc[n+]2C)c2ccccc21 [2-[(R)-1-Diethylcarbamoylmethyl-2-oxo-3-(3-m-tolyl-ureido)-2,3-dihydro-1H-benzo[e][1,4]diazepin-5-yl]-1-methyl-pyridinium; iodide]",7.74

# Next, values leading:
row,pIC50,SMILES
1,7.44,"CCCN1C(=O)[C@H](NC(=O)Nc2cccc(C)c2)N=C([C@H]2CCCCN2)c2ccccc21 [1-((R)-2-Oxo-5-(R)-piperidin-2-yl-1-propyl-2,3-dihydro-1H-benzo[e][1,4]diazepin-3-yl)-3-m-tolyl-urea]"
2,7.39,"CCCN1C(=O)[C@H](NC(=O)Nc2cccc(C)c2)N=C([C@@H]2CCCCN2)c2ccccc21 [1-((R)-2-Oxo-5-(S)-piperidin-2-yl-1-propyl-2,3-dihydro-1H-benzo[e][1,4]diazepin-3-yl)-3-m-tolyl-urea]"
3,8.82,"CCCN1C(=O)[C@H](NC(=O)Nc2cccc(C)c2)N=C([C@H]2CC(C)(C)CCN2)c2ccccc21 [1-[(R)-5-((R)-4,4-Dimethyl-piperidin-2-yl)-2-oxo-1-propyl-2,3-dihydro-1H-benzo[e][1,4]diazepin-3-yl]-3-m-tolyl-urea]"
